The values below come from PubChem BioAssay AID179 (DTP/NCI, 2004).

The term EC50 denotes the concentration at which the effect is half-maximal. Usually IC50 stands for the concentration that gives 50% inhibition. A high value points to weaker potency.

Structures are written as SMILES. Several values for one entry are separate records, joined by “and”; a condition that tells them apart may be missing. Identical values can stand only once. Activity calls are given as the source filed them.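 How the source made its calls: active means compounds giving half or more protection of infected cells from virus-caused growth loss, again on retest; inactive means the rest.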

The assay deals with CEM cells HIV-1 protection, formazan growth assay. Kind of assay: NCI AIDS Antiviral Assay. To be noted: for IC50: measured here: growth of uninfected CEM cells. A digest of the protocol:
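Protection of CEM cells against HIV-1 measured as cell growth via soluble formazan read-out, with five concentrations tested on both infected and uninfected cells; failure to protect may reflect toxicity.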

Take `O=c1[nH]nc(Cc2ccccc2)n1/N=C/c1cccnc1`: the EC50 was 56.2 µM and the half-maximal inhibitory concentration (IC50) was > 200 µM.

For the molecule `O=c1[nH]c(-c2ccc([N+](=O)[O-])cc2)nc2ccc(Cl)cc12`, the outcome was inactive.

With `Nc1cc(Cl)cc2cc(Cl)cnc12`, the EC50 is > 200 µM and the IC50 amounted to 117 µM.

In the case of `CN1C(=O)[C@@H]2[C@@H]3c4ccccc4N[C@@H]3c3[nH]c4ccccc4c3[C@@H]2C1=O`, the EC50 is > 200 µM and the 50% inhibitory concentration (IC50) was 81.3 µM.

For the molecule `COc1ccc(CC2C(=O)NC(C)C(=O)N(C)C3C(=O)N(C)C(Cc4ccc(O)c(c4)Oc4ccc(cc4)C3O)C(=O)NC(C)C(=O)NC(C)C(=O)N2C)cc1` (configuration not stated), the EC50 was > 0.2 µM and the concentration for half-maximal inhibition (IC50) amounted to 0.0631 µM.

In the case of `Fc1cccc(F)c1C1SCc2nc3ncccc3n21` (configuration not stated), the EC50 was 39.8 µM and the half-maximal inhibitory concentration (IC50) was found to be 61.7 µM.

As for `C=CC1(O)CCCC=C1COCc1ccccc1` (configuration not stated), the EC50 was > 200 µM and the IC50 is 33.1 µM.

On to `COc1ccc(C2C(C(C)=O)=C(C)NC(C)=C2C(C)=O)cc1`, for which the EC50 was > 200 µM and the IC50 was > 200 µM.

`O=C1c2c(c3c4ccccc4[nH]c3c3[nH]c4ccccc4c23)C(=O)N1Cc1ccccc1`: the EC50 was > 148 µM and the half-inhibitory concentration (IC50) came to 10.2 µM.

Turning to `NC(N)=Nc1ccc(/C=C2\C=Cc3ccccc32)cc1`, the EC50 was > 27.5 µM and the IC50 worked out at 10.5 µM.

Consider `C[Si](C)(OCCS(=O)(=O)O)C1S(=O)(=O)OCCOS1(=O)=O`, for which the EC50 was > 200 µM and the IC50 worked out at 60.3 µM.

Regarding `COc1ccc(CC(=O)C2C(=O)N(C)c3ccccc32)cc1OC` (configuration not stated), the EC50 was > 200 µM and the IC50 was 44.7 µM.

Take `CC1=C(C(=O)Nc2cccc(C(F)(F)F)c2)C(c2ccccc2F)C(C(=O)Nc2cccc(C(F)(F)F)c2)=C(C)N1`: the EC50 is > 32.4 µM and the 50% inhibitory concentration (IC50) was found to be 18.6 µM.

On to `Nc1cc(C(F)(F)F)ccc1S`, for which the EC50 was > 200 µM and the half-maximal inhibitory concentration (IC50) is 22.9 µM.

In the case of `O=C1CCCC[C@H]1[C@H]1CCC[C@@H]([C@H]2CCCCC2=O)C1=O`, the EC50 was > 871 µM and the IC50 was determined as 398 µM.

Regarding `O=C1CCC2(c3ccc(F)cc3)Nc3ccc(Cl)cc3N12` (configuration not stated), the EC50 was > 61.7 µM and the IC50 was determined as 45.7 µM.

`N#Cc1ccc([N+](=O)[O-])cc1NC(N)=S`: the EC50 was > 224 µM and the IC50 is > 224 µM.

On to `CCOC(=O)Nn1c(C)nnc1-c1ccccc1`, for which the EC50 was > 200 µM and the IC50 was > 200 µM.

As to `N#CCCN(CCC#N)C(=O)c1cccc(C(=O)N(CCC#N)CCC#N)c1`, the result was inactive.

Turning to `Cc1ccc(C)c(NC(=O)CC2C(=O)Nc3ccccc3S2(=O)=O)c1` (configuration not stated), the EC50 was > 4.07 µM and the 50% inhibitory concentration (IC50) was > 4.07 µM.

As for `OCC1OC2OC3C(CO)OC(OC4C(CO)OC(OC5C(CO)OC(OC6C(CO)OC(OC7C(CO)OC(OC1C(O)C2O)C(O)C7O)C(O)C6O)C(O)C5O)C(O)C4O)C(O)C3O` (configuration not stated) (tested in a mixture with another compound), the EC50 is > 200 µM and the 50% inhibitory concentration (IC50) was > 200 µM.

`Cc1nc2ccccc2c(C(=O)NO)[n+]1[O-]`: the EC50 was > 200 µM and the IC50 was > 200 µM.

As for `COC(=O)CCC1(C)C2CCC1/C(=N/O)C2` (configuration not stated), the EC50 is > 200 µM and the IC50 is > 200 µM.

On to `COC1CC(CC(C)O)CN(C#N)CCc2c1[nH]c1ccccc21` (configuration not stated), for which the EC50 is > 79.4 µM and the concentration for half-maximal inhibition (IC50) is > 79.4 µM.

For the molecule `O=C(O)CN(CC(=O)O)CC(O)CN(CC(=O)O)CC(=O)O`, the EC50 is > 200 µM and the half-inhibitory concentration (IC50) came to 69.2 µM.

`O=C1c2ccncc2C(=O)c2c(O)ccc(O)c21`: the EC50 was > 6.03 µM and the IC50 was determined as 3.24 µM.

Regarding `COc1cc(C(=O)C2CC3(CCC2(O)c2cc(OC)c(OC)c(OC)c2)CC(=O)Nc2ccccc2C3=O)cc(OC)c1OC` (configuration not stated), the EC50 is > 200 µM and the 50% inhibitory concentration (IC50) was > 200 µM.

For `CC(C)=CCc1c(O)c(CC2=C(O)C(C)=C(O)C(CC=C(C)C)(C(=O)C(C)C)C2=O)c(O)c(C(=O)C(C)C)c1O` (configuration not stated), the EC50 is > 100 µM and the half-inhibitory concentration (IC50) came out at 4.57 µM.

With `CCc1cccc(C(C)(C)C)c1NC(=S)N/C=C(/C#N)C(N)=O`, the EC50 is > 200 µM and the IC50 came out at 151 µM.

For `COc1cccc(Nc2nc(NNC(=O)Cc3ccccc3)nc(NNC(=O)c3ccncc3)n2)c1`, the EC50 was > 200 µM and the half-inhibitory concentration (IC50) is > 200 µM.

Take `Nc1nc(-c2ccccc2)nc2oc(-c3cccs3)nc12`: the EC50 was > 200 µM and the IC50 is > 200 µM.

Regarding `Cc1ccc(S(=O)(=O)n2ccnc2)cc1`, the EC50 is > 200 µM and the concentration for half-maximal inhibition (IC50) is > 200 µM.

Regarding `Cc1ccc(-c2nc3scc(C)n3n2)cc1`, the EC50 was > 200 µM and the IC50 stood at 182 µM.

With `N#CC(C#N)=c1cc/c(=c2/ccc(=C(C#N)C#N)s2)s1`, the EC50 was > 24.5 µM and the IC50 is > 24.5 µM.

Take `Cc1ccccc1C(C#N)/C(=N/NC(=O)C(=O)NN)C(=O)Nc1cccc(C(F)(F)F)c1` (configuration not stated): the EC50 is > 209 µM and the half-maximal inhibitory concentration (IC50) is > 209 µM.

On to `Cc1cc(C)nc(NS(=O)(=O)c2ccc(Nc3c4ccccc4nc4c(C(=O)Nc5ccc(S(=O)(=O)N=C(N)N)cc5)ccc(Cl)c34)cc2)n1`, for which the EC50 is > 93.3 µM and the IC50 amounted to 69.2 µM.

Turning to `CC1(C)OC(=O)C(C)(C)OC1=O`, the EC50 is > 200 µM and the IC50 is > 200 µM.

For `CCOC(=O)c1c2ccc(/C=C/c3ccccc3)ccc-2c(C(=O)OCC)c1N`, the EC50 was > 7.08 µM and the 50% inhibitory concentration (IC50) was > 7.08 µM.

For the molecule `CCOC(=O)c1c(NC(=O)c2ccccc2)sc2c1CCC2`, the EC50 was > 151 µM and the 50% inhibitory concentration (IC50) was > 151 µM.

Turning to `NCCCCCC(=O)O`, the EC50 was > 200 µM and the concentration for half-maximal inhibition (IC50) was > 200 µM.

Take `CCO/C(O)=c1/s/c(=C2/SC(=S)N(c3ccc(C)cc3)C2=O)n(-c2ccccc2)c1=N`: the EC50 is > 1.58 µM and the half-inhibitory concentration (IC50) is > 1.58 µM.

In the case of `O=Nc1c2cc3ccccc3[nH]c-2c2ccccc12`, the EC50 was > 40.7 µM and the half-maximal inhibitory concentration (IC50) was 20.4 µM.

As to `CN/N=C(/CC(=O)c1sc(-n2nc(-c3ccccc3)cc2-c2ccccc2)nc1C)C(=O)Nc1ccc(Cl)c(Cl)c1`, the EC50 is > 112 µM and the 50% inhibitory concentration (IC50) was > 112 µM.

As for `CC(NS(=O)(=O)c1ccc(Cl)cc1)C(=O)O` (configuration not stated), the outcome was inactive.

For the molecule `Oc1ccc(O)c([P+](c2ccccc2)(c2ccccc2)c2ccccc2)c1`, the EC50 was > 200 µM and the 50% inhibitory concentration (IC50) came to 30.2 µM.

On to `O=c1c2cncnc2sc2nc3ccccc3n12`, for which the EC50 is > 200 µM and the IC50 is > 200 µM.

As for `CC(C)SC1CC2C(CC1(C)O)C2(C)C` (configuration not stated), the EC50 is > 200 µM; the half-inhibitory concentration (IC50) is > 200 µM and 91.2 µM.

As to `O=c1ccc2cc3ccoc3c(OCCCCCCCCCCCCOc3c4occc4cc4ccc(=O)oc34)c2o1`, the EC50 is > 38.9 µM and the IC50 is > 38.9 µM.

For `Cc1c(C(=O)CC(=O)C(=O)NC2C3CC4CC(C3)CC2C4)[n+](=O)c2ccccc2n1[O-]` (configuration not stated), the EC50 is > 12.3 µM and the concentration for half-maximal inhibition (IC50) was > 12.3 µM.

On to `COc1cc2c(oc(=O)c3cc4ccoc4c(OC)c32)c2cccc(O)c12`, for which the EC50 was > 1.45 µM and the half-inhibitory concentration (IC50) is > 1.45 µM.

In the case of `COc1ccc(S(=O)(=O)N/N=C/CN2C(=O)c3ccccc3C2=O)cc1`, the EC50 is > 135 µM and the IC50 is > 135 µM.

On to `COc1ccc(-c2nc(-c3cnccn3)n(C3OC(CO)C(O)C(O)C3O)n2)cc1` (configuration not stated), for which the EC50 was > 200 µM and the IC50 is > 200 µM.

On to `COc1ccc2c(c1)C1=C(CC2)C(=O)OC1=O`, for which the outcome was inactive.

Take `CCOC(=O)c1cc(C2CCN(CC(C)CC)C2=S)c(-c2cc(C)no2)[nH]1` (configuration not stated): the EC50 is > 200 µM and the 50% inhibitory concentration (IC50) was > 200 µM.

In the case of `COC(=O)[C@@]1(O)CC(C)C=C1C=O` (some centres not stated), the EC50 is > 1350 µM and the IC50 was determined as 28.8 µM.

For the molecule `N#C/C(=C\n1c(=S)[nH]c2ccc([N+](=O)[O-])cc21)c1cccc(Cl)c1`, the EC50 was > 200 µM and the IC50 came out at 120 µM.

On to `COc1ccc(C2C3=C(COC3=O)Oc3cc4c(cc32)OCO4)cc1OC` (configuration not stated), for which the EC50 was > 20 µM and the IC50 was determined as 0.603 µM.

Regarding `CNc1c(Br)cc(/C=C2\C=Cc3ccccc32)cc1Br`, the EC50 is > 9.55 µM and the concentration for half-maximal inhibition (IC50) is > 9.55 µM.

As to `COC(=O)/C=C\C(C#N)(C#N)N=Cc1cc(Br)cs1`, the EC50 is > 2 µM and the half-inhibitory concentration (IC50) was 0.676 µM.

Turning to `CC(C)c1ccc2c(c1)C=C1OC(=O)[C@]3(C)CCC[C@@]2(C)C13` (some centres not stated), the EC50 was > 200 µM and the IC50 was 115 µM.

For `CC(C)NC1CCCCC2c3ccccc3C12O` (configuration not stated), the EC50 is 145 µM and the concentration for half-maximal inhibition (IC50) is > 200 µM.

As for `O=C(NCCNCCCNC(=O)c1cc(-c2ccccc2)nc2ccccc12)c1cccc(O)c1O`, the EC50 is > 200 µM and the 50% inhibitory concentration (IC50) was determined as 3.24 µM.

With `OC(CNc1ccccn1)c1ccccc1` (configuration not stated), the EC50 is > 200 µM and the IC50 is > 200 µM.

Turning to `O=C1Sc2ccccc2Cn2cccc21`, the EC50 was 186 µM and the IC50 was > 200 µM.

`CC(C)(Oc1ccc(C(=O)c2ccc(Cl)cc2)cc1Cl)C(=O)Nc1c(Cl)cccc1Cl`: the EC50 is > 7.59 µM and the IC50 was > 7.59 µM.

Take `O=[N+]([O-])c1cccc(C2c3ccccc3Oc3ccccc32)c1`: the EC50 is > 200 µM and the IC50 was 19.1 µM.

Take `Cc1cc(=O)oc2cc(O)cc(OCc3ccccc3)c12`: the EC50 is > 107 µM and the IC50 was 41.7 µM.

As to `Cc1cc(Cl)ccc1NC(=O)C1C(=O)N(c2ccc(Cl)cc2C)C(=O)/C1=N\NC(N)=S` (configuration not stated), the EC50 is > 11 µM and the IC50 is > 11 µM.

In the case of `O=S1(=O)CCN2OCC1C2c1cccc2ccccc12` (configuration not stated), the outcome was inactive.

With `COC(C/C(=C/CO[Si](C(C)C)(C(C)C)C(C)C)C(=O)N(COCC[Si](C)(C)C)c1ccccc1I)OC`, the EC50 is > 200 µM and the IC50 came to 32.4 µM.

Regarding `COc1cc(OC)c(-c2oc3ccccc3c(=O)c2O)c(OC)c1`, the outcome was inactive.

Consider `Cc1nn(C(=O)c2c(O)cccc2Cl)c(C)c1N=Nc1ccccc1`, for which the result was inactive.
